Results taken from patent US7192948B2, “Bicyclic heterocycles as HIV integrase inhibitors” (priority 2004, dated 2007).

Target: T1, HIV-integrase (Human immunodeficiency virus type 1 group M subtype B, UniProt P12497)
T1 construct: Recombinant integrase (0.26 ng) was incubated with the beads
Assay: HIV-Integrase Inhibition Activity (SPA bead strand transfer assay)
Type: biochemical
Details: recombinant integrase, in vitro
Experimental: HIV-Integrase Inhibition Activity. To evaluate in-vitro activity against HIV-integrase, 5 pmole of biotin labeled substrate DNA was bound to 100 μg of Streptavidin coated PVT SPA beads (Amersham Pharmacia Biotech). Recombinant integrase (0.26 ng) was incubated with the beads for 90 min at 37° C. Unbound enzyme was removed by washing the complex followed by addition of inhibitors and 0.1 fmol of P33 labeled target DNA. The reaction was stopped by adding EDTA to a final concentration of […]. Samples were counted in TopCountNXT (Packard) and the CPM was used as a measure of integration. The reaction condition was as described in A. Engelman and R. Craigie, J. Virol. 69, 5908–5911 (1995). The sequences of substrate and target DNA were described in Nucleic Acid Research 22, 1121–1122 (1994).

Compound | IC50 [nM]
O=C1Cn2c(nc(C(=O)NCc3ccc(F)cc3)c(O)c2=O)N1 [Example 1, 6-Hydroxy-2,5-dioxo-1,2,3,5-tetrahydro-imidazo[1,2-a]pyrimidine-7-carboxylic acid 4-fluoro-benzylamide] | ≥ 50
CN1C(=O)Cn2c1nc(C(=O)NCc1ccc(F)cc1)c(O)c2=O [Example 9, N-(4-Fluorobenzyl)-6-hydroxy-1-methyl-2,5-dioxo-1,2,3,5-tetrahydroimidazo[1,2-a]pyrimidine-7-carboxamide] | ≥ 50
CN1C(=O)Cn2c1nc(C(=O)NCc1ccc(Cl)c(Cl)c1)c(O)c2=O [Example 10, N-(3,4-Dichlorobenzyl)-6-hydroxy-1-methyl-2,5-dioxo-1,2,3,5-tetrahydroimidazo[1,2-a]pyrimidine-7-carboxamide] | 4 to 15
Cc1cc(CNC(=O)c2nc3n(c(=O)c2O)CC(=O)N3C)ccc1F [Example 11, N-(4-Fluoro-3-methylbenzyl)-6-hydroxy-1-methyl-2,5-dioxo-1,2,3,5-tetrahydroimidazo[1,2-a]pyrimidine-7-carboxamide] | 4 to 15
CN1C(=O)Cn2c1nc(C(=O)NCc1ccc(F)c(Cl)c1)c(O)c2=O [Example 12, N-(3-Chloro-4-fluorobenzyl)-6-hydroxy-1-methyl-2,5-dioxo-1,2,3,5-tetrahydroimidazo[1,2-a]pyrimidine-7-carboxamide] | 16 to 49000
Cc1ccc(CNC(=O)c2nc3n(c(=O)c2O)CC(=O)N3C)cc1C [Example 13, N-(3,4-Dimethylbenzyl)-6-hydroxy-1-methyl-2,5-dioxo-1,2,3,5-tetrahydroimidazo[1,2-a]pyrimidine-7-carboxamide] | 16 to 49000
O=C(NCc1ccc(F)cc1)c1nc2n(c(=O)c1O)CC(=O)N2Cc1ccccc1 [Example 14, N-(4-Fluorobenzyl)-1-benzyl-6-hydroxy-2,5-dioxo-1,2,3,5-tetrahydroimidazo[1,2-a]pyrimidine-7-carboxamide] | 16 to 49000
Cc1cc(CNC(=O)c2nc3n(c(=O)c2O)CC(=O)N3Cc2ccccc2)ccc1F [Example 15, N-(4-Fluoro-3-methylbenzyl)-1-benzyl-6-hydroxy-2,5-dioxo-1,2,3,5-tetrahydroimidazo[1,2-a]pyrimidine-7-carboxamide] | 16 to 49000
CNC(=O)c1cc(F)ccc1CNC(=O)c1nc2n(c(=O)c1O)CC(=O)N2Cc1ccccc1 [Example 16, N-(4-Fluoro-2-(methylcarbamoyl)benzyl)-1-benzyl-6-hydroxy-2,5-dioxo-1,2,3,5-tetrahydroimidazo[1,2-a]pyrimidine-7-carboxamide] | 16 to 49000
CNC(=O)c1cc(F)ccc1CNC(=O)c1nc2n(c(=O)c1O)CC(=O)N2C [Example 17, N-{4-Fluoro-2-(methylcarbamoyl)benzyl}-6-hydroxy-1-methyl-2,5-dioxo-1,2,3,5-tetrahydroimidazo[1,2-a]pyrimidine-7-carboxamide] | ≥ 50
CNC(=O)c1cc(F)ccc1CNC(=O)c1nc2n(c(=O)c1O)CCC(=O)N2C [Example 23, N-(4-Fluoro-2-(methylcarbamoyl)benzyl)-3-hydroxy-9-methyl-4,8-dioxo-6,7,8,9-tetrahydro-4H-pyrimido[1,2-a]pyrimidine-2-carboxamide] | 4 to 15
O=C(NCc1ccc(F)cc1)c1nc2n(c(=O)c1O)CCS(=O)(=O)N2 [Example 24, 7-Hydroxy-2,2,6-trioxo-1,3,4,6-tetrahydro-2H-2λ^6-pyrimido[2,1-c][1,2,4]thiadiazine-8-carboxylic acid 4-fluoro-benzylamide] | ≥ 50
CN1C(=O)Cn2c(nc(C(=O)NCc3ccc(F)cc3)c(O)c2=O)N1C [Example 25, N-(4-Fluorobenzyl)-1,2-dimethyl-7-hydroxy-3,6-dioxo-2,3,4,6-tetrahydro-1H-pyrimido[2,1-c][1,2,4]triazine-8-carboxamide] | 16 to 49000
CN1C(=O)Cn2c(nc(C(=O)NCc3ccc(Cl)c(Cl)c3)c(O)c2=O)N1C [Example 26, N-(3,4-Dichlorobenzyl)-1,2-dimethyl-7-hydroxy-3,6-dioxo-2,3,4,6-tetrahydro-1H-pyrimido[2,1-c][1,2,4]triazine-8-carboxamide] | 16 to 49000
Cc1cc(CNC(=O)c2nc3n(c(=O)c2O)CC(=O)N(C)N3C)ccc1F [Example 27, N-(4-Fluoro-3-methylbenzyl)-1,2-dimethyl-7-hydroxy-3,6-dioxo-2,3,4,6-tetrahydro-1H-pyrimido[2,1-c][1,2,4]triazine-8-carboxamide] | 16 to 49000
CN1C(=O)Cn2c(nc(C(=O)NCc3ccc(F)c(Cl)c3)c(O)c2=O)N1C [Example 28, N-(3-Chloro-4-fluorobenzyl)-1,2-dimethyl-7-hydroxy-3,6-dioxo-2,3,4,6-tetrahydro-1H-pyrimido[2,1-c][1,2,4]triazine-8-carboxamide] | 16 to 49000
CN1Nc2nc(C(=O)NCc3ccc(F)cc3)c(O)c(=O)n2CC1=O [Example 29, N-(4-Fluorobenzyl)-7-hydroxy-2-methyl-3,6-dioxo-2,3,4,6-tetrahydro-1H-pyrimido[2,1-c][1,2,4]triazine-8-carboxamide] | ≥ 50

Compound | IC50 [nM]
Cc1cc(CNC(=O)c2nc3n(c(=O)c2O)CC(=O)N(C)N3)ccc1F [Example 30, N-(4-Fluoro-3-methylbenzyl)-7-hydroxy-2-methyl-3,6-dioxo-2,3,4,6-tetrahydro-1H-pyrimido[2,1-c][1,2,4]triazine-8-carboxamide] | ≥ 50
CN1Nc2nc(C(=O)NCc3ccc(Cl)c(Cl)c3)c(O)c(=O)n2CC1=O [Example 31, N-(3,4-Dichlorobenzyl)-7-hydroxy-2-methyl-3,6-dioxo-2,3,4,6-tetrahydro-1H-pyrimido[2,1-c][1,2,4]triazine-8-carboxamide] | 4 to 15
Cc1cc(CNC(=O)c2nc3n(c(=O)c2O)CC(=O)N2CCCCN32)ccc1F [Example 32, 2-Hydroxy-1,9-dioxo-5,6,7,8,9,10-hexahydro-1H-4,4b,8a,10a-tetraaza-phenanthrene-3-carboxylic acid 4-fluoro-3-methyl-benzylamide] | 4 to 15
O=C(NCc1ccc(F)cc1)c1nc2n(c(=O)c1O)CC(=O)N1CCCCN21 [Example 33, 2-Hydroxy-1,9-dioxo-5,6,7,8,9,10-hexahydro-1H-4,4b,8a,10a-tetraaza-phenanthrene-3-carboxylic acid 4-fluoro-benzylamide] | 16 to 49000
O=C(NCc1ccc(F)cc1)c1nc2n(c(=O)c1O)CC(=O)N1CCCN21 [Example 34, 7-Hydroxy-4,6-dioxo-2,3,4,5-tetrahydro-1H,6H-3a,5a,9,9b-tetraaza-benz[e]indene-8-carboxylic acid 4-fluoro-benzylamide] | 16 to 49000
Cc1cc(CNC(=O)c2nc3n(c(=O)c2O)CC(=O)N2CCCN32)ccc1F [Example 35, 7-Hydroxy-4,6-dioxo-2,3,4,5-tetrahydro-1H,6H-3a,5a,9,9b-tetraaza-benz[e]indene-8-carboxylic acid 4-fluoro-3-methyl-benzylamide] | 4 to 15
O=C(NCc1ccc(F)cc1)c1nc2n(c(=O)c1O)CCS2 [Example 36, N-(4-Fluorobenzyl)-6-hydroxy-5-oxo-3,5-dihydro-2H-thiazolo[3,2-a]pyrimidine-7-carboxamide] | 4 to 15
Cc1cc(CNC(=O)c2nc3n(c(=O)c2O)CCS3)ccc1F [Example 37, N-(4-Fluoro-3-methylbenzyl)-6-hydroxy-5-oxo-3,5-dihydro-2H-thiazolo[3,2-a]pyrimidine-7-carboxamide] | 4 to 15
O=C(NCc1ccc(Cl)c(Cl)c1)c1nc2n(c(=O)c1O)CCS2 [Example 38, N-(3,4-Dichlorobenzyl)-6-hydroxy-5-oxo-3,5-dihydro-2H-thiazolo[3,2-a]pyrimidine-7-carboxamide] | 4 to 15
Cc1ccc(CNC(=O)c2nc3n(c(=O)c2O)CCS3)cc1C [Example 39, N-(3,4-Dimethylbenzyl)-6-hydroxy-5-oxo-3,5-dihydro-2H-thiazolo[3,2-a]pyrimidine-7-carboxamide] | 16 to 49000
CNC(=O)c1cc(F)ccc1CNC(=O)c1nc2n(c(=O)c1O)CCS2 [Example 40, N-(4-Fluoro-2-(methylcarbamoyl)benzyl)-6-hydroxy-5-oxo-3,5-dihydro-2H-thiazolo[3,2-a]pyrimidine-7-carboxamide] | 16 to 49000
CC1(C)Cn2c(nc(C(=O)NCc3ccc(F)cc3)c(O)c2=O)S1 [Example 41, N-(4-Fluorobenzyl)-6-hydroxy-2,2-dimethyl-5-oxo-3,5-dihydro-2H-thiazolo[3,2-a]pyrimidine-7-carboxamide] | ≥ 50
CNC(=O)c1cc(F)ccc1CNC(=O)c1nc2n(c(=O)c1O)CC(C)(C)S2 [Example 42, N-(4-Fluoro-2-(methylcarbamoyl)benzyl)-6-hydroxy-2,2-dimethyl-5-oxo-3,5-dihydro-2H-thiazolo[3,2-a]pyrimidine-7-carboxamide] | ≥ 50
O=C1Cn2c(nc(C(=O)NCc3ccc(F)cc3)c(O)c2=O)CN1 [Example 43, N-(4-Fluorobenzyl)-3-hydroxy-4,7-dioxo-6,7,8,9-tetrahydro-4H-pyrazino[1,2-a]pyrimidine-2-carboxamide] | ≥ 50
CN1Cc2nc(C(=O)NCc3ccc(F)cc3)c(O)c(=O)n2CC1=O [Example 44, N-(4-Fluorobenzyl)-3-hydroxy-8-methyl-4,7-dioxo-6,7,8,9-tetrahydro-4H-pyrazino[1,2-a]pyrimidine-2-carboxamide] | ≥ 50
CC1(C)NC(=O)Cn2c1nc(C(=O)NCc1ccc(F)cc1)c(O)c2=O [Example 45, N-(4-fluorobenzyl)-3-hydroxy-9,9-dimethyl-4,7-dioxo-6,7,8,9-tetrahydro-4H-pyrazino[1,2-a]pyrimidine-2-carboxamide] | 16 to 49000
